The source of these data is patent publication US4151300A, “Acetohydroxamic acids” (Laboratoire L. Lafon, priority 1976, dated 1979).

The test system of data set [1] is central nervous system. Conditions: prior art; cited from earlier work.
The test system of data set [2] is mice. Nature of the data set: toxicity (isolated mice, intraperitoneal). The format is in vivo. How it is done:
(§1) The following text summarises a part of the results of the tests which were carried out with the products according to the invention, these products (unless otherwise stated) being administered intraperitoneally, in suspension in a gum solution (gum arabic), in a volume of 20 ml/kg in the case of mice and of 5 ml/kg in the case of rats.

For data set [3], the system named is mice. Nature of the data set: inter-group aggressiveness (number of fights). The class given is in vivo. How it is done: as §1
After three weeks' residence in each of the halves of a cage divided by an opaque partition, the mice receive CRL 40,373 thirty minutes before being brought together by withdrawing the partition.
After 18 days' residence on either side of a partition separating their cage in the middle, groups of 3 mice receive CRL 40,385 and are brought together half an hour later by withdrawing the partition, and the number of fights which take place in the course of 15 minutes is noted.

Data set [4] deals with mice. Nature of the data set: motility reduced by habituation to a cage (residual motility). Conditions: i.p. The format is in vivo. How it is done: as §1
Mice which have remained for 18 hours in the actimeters are given CRL 40,373. They are immediately replaced in their cages and, after a period of half an hour, their motility is recorded for 30 minutes (6 animals per dose, 12 comparison animals).
After remaining for 18 hours in the actimeters, the mice receive CRL 40,385. Immediately afterwards they are replaced in their cage and half an hour afterwards the recording of the motility starts and is continued for 30 minutes.

Data set [5] concerns mice. Kind of data set: motility reduced by hypoxia treatment (motor recovery). The class given is in vivo. Conditions: for motor recovery after hypoxia/anoxia by pressure reduction: mice, i.p.
Data set [6] has as its system mice. Nature of the data set: spontaneous motility (actimeter). The format is in vivo. Conditions: i.p. How it is done: as §1
Thirty minutes after having been given CRL 40,373, the mice (6 per dose, 12 comparison animals) are placed in an actimeter, where their motility is recorded for half an hour.
Thirty minutes after having been given CRL 40,385, the mice are placed in actimeters where their motility is recorded for half an hour.

Data set [7] has as its system mice. Nature of the data set: interaction with reserpine (hypothermia, ptosis). Conditions: i.p.; for reserpine-induced hypothermia: 512 mg/kg. The format is in vivo.
The subject of data set [8] is mice. Nature of the data set: interaction with oxotremorine (temperature, trembling, peripheral cholinergic symptoms). The class given is in vivo. Particulars: mice, i.p.
Data set [9] has as its system rats. Kind of data set: interaction with amphetamine (stereotypies in rats). The format is in vivo. Conditions: i.p., 256 mg/kg. How it is done: as §1
30 minutes after the administration of CRL 40,373, amphetamine is injected intraperitoneally at a dose of 2 mg/kg.
Thirty minutes after the administration of CRL 40,385 the rats are given an intraperitoneal injection of 2 mg/kg of amphetamine (6 animals per dose).

Data set [10] has as its system central nervous system. Kind of data set: psychopharmacological study / behaviour. The class given is in vivo, mice. Particulars: high dose (256 mg/kg).

As to `O=C(CC[S+]([O-])c1ccc(F)cc1)NO` (centres unmarked) [3-(p-fluorophenylsulphinyl)-propionohydroxamic acid], the usefulness in therapy entry in data set [1] is reported as “of interest in the treatment of the central nervous system”.
On to `O=C(CC[S+]([O-])C(c1ccccc1)c1ccccc1)NO` (centres unmarked) [3-benzhydrylsulphinyl-propionohydroxamic acid], for which the usefulness in therapy result in [1] is “of interest in the treatment of the central nervous system”.
In the case of `O=C(CCC[S+]([O-])c1ccc(Cl)cc1)NO` (centres unmarked) [4-(p-chlorophenylsulphinyl)-butyrohydroxamic acid], the usefulness in therapy result in data set [1] is listed as “of interest in the treatment of the central nervous system”.
For `O=C(CCC[S+]([O-])c1ccc(F)cc1)NO` (centres unmarked) [4-(p-fluorophenylsulphinyl)-butyrohydroxamic acid], the usefulness in therapy entry in data set [1] is given as “of interest in the treatment of the central nervous system”.
`O=C(CCC[S+]([O-])C(c1ccccc1)c1ccccc1)NO` (centres unmarked) [4-benzhydrylsulphinyl-butyrohydroxamic acid]: the usefulness in therapy entry in data set [1] is “of interest in the treatment of the central nervous system”.
As to `O=C(CCC[S+]([O-])c1ccccc1)NO` (centres unmarked) [4-phenylsulphinylbutyrohydroxamic acid], in [1], the usefulness in therapy entry is “of interest in the treatment of the central nervous system”.
As to `O=C(CC(O)COc1cccc2ccccc12)NO` (stereo not drawn) [4-α-naphthyloxy-3-hydroxybutyrohydroxamic acid], the usefulness in therapy entry in data set [1] is “inactive in therapy”.
As to `O=C(C[S+]([O-])Cc1ccc(Cl)cc1)NO` (stereo not drawn) [CRL 40,411, α-(Chlorobenzylsulphinyl)-acetohydroxamic acid], in [2] (mice, i.p.), the “LD-O (maximum non-lethal dose)” value is listed as “greater than 1,024 mg/kg”.
With `CCC(C(=O)NO)C(=O)N(c1ccccc1)c1ccccc1` (centres unmarked) [CRL 40,439, 2-(N,N-Diphenylcarbamoyl)-butyrohydroxamic acid], the inter-group aggressiveness result in data set [3] (mice, i.p.) is on record as “moderately reduces the inter-group aggressiveness in mice”. In data set [2] (mice, i.p.), the “LD-O (maximum non-lethal dose)” value is listed as “greater than 1,024 mg/kg”. The symptoms / behaviour result in data set [2] (mouse, in vivo, ip, 128 mg/kg) is “none of these symptoms is observed”. The “motility reduced by habituation to the cage” value (shortened to “motility reduced”) in data set [4] (128 mg/kg) is “causes a resumption of the motor activity in animals habituated to their cage”. Moreover, in [5], the “motor recovery after hypoxia/anoxia by pressure reduction” value is “does not improve the motor recovery”. Further, in data set [6] (mice, 512 mg/kg), the spontaneous motility entry is recorded as “very great reduction in the spontaneous motility”. Further, in data set [7], the reserpine-induced ptosis entry is on record as “does not affect reserpine-induced ptosis” and the reserpine-induced hypothermia result was “increases, at a dose of 512 mg/kg, the hypothermia-inducing effect of reserpine”. Besides, the oxotremorine-induced trembling result in [8] is “moderately reduces the intensity of the trembling movements due to oxotremorine”. In addition, the “temperature (oxotremorine-induced hypothermia)” value (“temperature” below) in data set [8] (512 mg/kg) is “increases, at a dose of 512 mg/kg, the hypothermia-inducing effect of reserpine and of oxotremorine”.
For `O=C(CC(=O)N(C1CCCCC1)C1CCCCC1)NO` [CRL 40,446, N,N-(Dicyclohexyl)-carbamoylacetohydroxamic acid], in data set [3] (mice, i.p.), the inter-group aggressiveness entry is recorded as “reduces, to a moderate degree, inter-group aggressiveness in mice”. Further, the mortality entry in [2] (mouse, in vivo) is recorded as “does not cause any mortality whatsoever”. Further, the “motility reduced” value in data set [4] was “does not cause any resumption in the motor activity of mice”. For the same compound, the “motor recovery after hypoxia/anoxia by pressure reduction” value in [5] is reported as “does not cause any resumption in the motor activity of mice”. Also, in data set [6] (mice, 128 and 512 mg/kg), the spontaneous motility entry is reported as “reduces the spontaneous motility in mice”. For the same compound, in data set [7], the reserpine-induced ptosis result is “ptosis induced by reserpine is not affected” and the reserpine-induced hypothermia result is recorded as “partially antagonises hypothermia induced by reserpine”.
Consider `CC(C(=O)NO)N1C(=O)NC(c2ccccc2)(c2ccccc2)C1=O` (centres unmarked) [CRL 40,447, 2-[3-(5,5-Diphenylhydantoinyl)]-propionohydroxamic acid], for which the “LD-O (maximum non-lethal dose)” value in data set [2] (mouse, in vivo, ip) is “greater than 1,024 mg/kg”. Moreover, the spontaneous motility result in data set [6] (mice, 512 mg/kg) is “reduces the spontaneous motility of mice”.
Take `CCC1(c2ccccc2)NC(=O)N(CC(=O)NO)C1=O` (centres unmarked) [CRL 40,450, 3-(5-Ethyl-5-phenyl-hydantoinyl)-acetohydroxamic acid]: the inter-group aggressiveness result in [3] (mice, i.p., 512 and 256 mg/kg) was “reduces the inter-group aggressiveness in mice”. For the same compound, in data set [2] (mice, i.p.), the “LD-O (maximum non-lethal dose)” value is reported as “greater than 1,024 mg/kg”. In data set [6] (mice, 512 mg/kg), the spontaneous motility entry is reported as “reduction in the spontaneous motility of mice”. In addition, the reserpine-induced hypothermia result in data set [7] is reported as “aggravates the hypothermia induced by reserpine”. In addition, the “temperature” value in [8] (512 mg/kg) is “aggravates the hypothermia induced by reserpine and by oxotremorine”. Besides, the oxotremorine-induced trembling result in data set [8] (high dose (512 mg/kg)) is listed as “reduces the intensity of the trembling movements due to oxotremorine”.
On to `O=C(CC(=O)Nc1ccc(Cl)cc1)NO` [CRL 40,464, N-(4-Chlorophenyl)-carbamoyl-acetohydroxamic acid], for which, in [2] (mice, i.p.), the “LD-O (maximum non-lethal dose)” value was “greater than 1,024 mg/kg”. Further, the “motility reduced” value in [4] (128 mg/kg) is “causes a resumption of the motor activity in animals habituated to their cage”. Moreover, in [6], the spontaneous motility entry is recorded as “reduces the spontaneous motility in mice”. Also, in [8], the oxotremorine-induced trembling entry is given as “moderately reduces the intensity of the trembling movements” and the “temperature” value is “aggravates the hypothermia due to oxotremorine”. Also, in [9], the amphetamine-induced stereotypies result was “reduces the intensity of amphetamine-induced stereotypies”.
Consider `O=C(CN1C(=O)NC(c2ccc(Cl)cc2)(c2ccc(Cl)cc2)C1=O)NO` [CRL 40,468, 3-(5,5-di-p-chlorophenyl-hydantoinyl)-acetohydroxamic acid], for which the aggressiveness entry in [3] (mice, i.p., large/high dose) is “reduces the number of fights”. Moreover, the mortality result in [2] (mouse, in vivo) is “found dead 24 hours after the injection”. For the same compound, in data set [2] (mouse, in vivo, ip, 512 mg/kg), the mortality entry is “no mortality is observed” and the symptoms / behaviour entry is recorded as “the symptoms are comparable”.
As to `O=C(C[S+]([O-])Cc1cccc2ccccc12)NO` (stereo not drawn) [CRL 40,475, α-Naphthylmethylene-sulphinyl-acetohydroxamic acid], the “LD-O (maximum non-lethal dose)” value in [2] (mice, i.p.) was “greater than 1,024 mg/kg”.
Same read-out and setting: the result for `O=C(Cc1nc2ccccc2n1-c1ccccc1)NO` [CRL 40,490, 2-(1-Phenyl-benzimidazolyl)-acetohydroxamic acid] reads “greater than 1,024 mg/kg”.
Turning to `O=C(CC(=O)Nc1ccc(Cl)c(Cl)c1)NO` [CRL 40,491, 3,4-Dichlorophenylcarbamoylacetohydroxamic acid], the inter-group aggressiveness entry in data set [3] (mice, i.p., 256 mg/kg) is given as “reduces the inter-group aggressiveness of mice”. The “LD-O (maximum non-lethal dose)” value in data set [2] (mice, i.p.) was “greater than 1,024 mg/kg”. Besides, in data set [2] (mice, i.p., 1,024 mg/kg, 24 hours after administration), the mortality result was “no mortality 24 hours after administration”. Also, the “motility reduced” value in [4] (256 mg/kg) was “moderate resumption of the activity of mice habituated to their cage”. Moreover, the spontaneous motility entry in data set [6] (mice, 512 mg/kg) was “reduction in the spontaneous motility of mice”. Besides, the amphetamine-induced stereotypies entry in [9] is listed as “reduces the intensity of amphetamine-induced stereotypies”.
For `COc1cc(NC(=O)CC(=O)NO)cc(OC)c1OC` [CRL 40,509, 3,4,5-Trimethoxyphenyl-carbamoyl-acetohydroxamic acid], the anti-aggressive effect entry in [3] (very low doses (8 and 16 mg/kg)) was “an effect of the anti-aggressive type”. The sedation entry in data set [10] was “sedation”. Also, in data set [5] (64 and 128 mg/kg), the anti-anoxia effect result is “an effect of the anti-anoxia type”.
As for `O=C(CNC(=O)Nc1ccccc1)NO` [CRL 40,513, 5-Phenylureidoacetohydroxamic acid], the inter-group aggressiveness result in [3] (mice, i.p.) is “anti-aggressive effect”. For the same compound, in [2] (mouse, in vivo, ip), the “LD-O (maximum non-lethal dose)” value is “greater than 1,024 mg/kg”; the symptoms / behaviour result was “sedation and hypothermia”. Also, in [5], the “motor recovery after hypoxia/anoxia by pressure reduction” value was “improvement in the motor recovery of mice”.
For `O=C(C[S+]([O-])C(c1ccccc1)c1ccccc1)NO` (stereo not drawn) [β-benzhydrylsulphinyl-acetohydroxamic acid], in [1], the usefulness in therapy entry is “of interest in the treatment of the central nervous system”.
